Reference: patent publication US20240239801A1, “PYRIMIDO[5,4,D]PYRIMIDINE COMPOUNDS, COMPOSITIONS COMPRISING THEM AND USES THEREOF” (Université de Montréal, priority 2021, published 2024)

Tests used:
Experiment in all cases: Phospho-ERK inhibition, AlphaLISA SureFire Ultra p-ERK 1/2
Type in all cases: cell-based, human
[1] = test system: IPC298 pERK; settings: Table D-1; for IPC298 pERK, value in parentheses, % inhibition: % Ymin of pERK IC50 curve
In short: (§1)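 Cells plated in RPMI-1640 with 5% FBS, held overnight, then exposed 1 h to ten-point compound dilutions (top 30 or 10 μM down to 0.33 nM; 0.5% DMSO). Lysates read for p-ERK1/2 (Thr202/Tyr204) by AlphaLISA; % inhibition relative to DMSO after subtracting a 1 μM trametinib background; IC50 from four-parameter fit.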

[2] = test system: NCI-H358 pERK; settings: Table D-2; for NCI-H358 pERK, value in parentheses, % inhibition: % Ymin of pERK IC50 curve
In short: as §1

[3] = test system: NCI-H2122 pERK; settings: Table D-2; for NCI-H2122 pERK, value in parentheses, % inhibition: % Ymin of pERK IC50 curve
In short: as §1

[4] = test system: SK-MEL30 pERK; settings: Table D-1; for SK-MEL30 pERK, value in parentheses, % inhibition: % Ymin of pERK IC50 curve
In short: as §1

[5] = test system: NCIH1755 pERK; settings: Table D-2; for Ymin of pERK inhibition curve (%): % Ymin of pERK IC50 curve
In short: as §1

[6] = test system: Lovo pERK; settings: Table D-2; for pERK curve Ymin (%): % Ymin of pERK IC50 curve
In short: as §1

[7] = test system: SW620 pERK; settings: Table D-2; for pERK IC50 curve bottom (Ymin), %: % Ymin of pERK IC50 curve
In short: as §1

[8] = test system: Mewo pERK; settings: Table D-2; for Mewo pERK, value in parentheses, % inhibition: % Ymin of pERK IC50 curve
In short: as §1

[9] = test system: NCIH2087 pERK; settings: Table D-2
In short: as §1

[10] = test system: HepG2 pERK; settings: Table D-1; for HepG2 pERK, value in parentheses, % inhibition: % Ymin of pERK IC50 curve
In short: as §1

[11] = test system: Calu6 pERK; settings: Table D-2; for Calu6 pERK, value in parentheses, % inhibition: % Ymin of pERK IC50 curve
In short: as §1

SMILES | IPC298 pERK, value in parentheses, % inhibition [1] | NCI-H358 pERK, value in parentheses, % inhibition [2] | NCI-H2122 pERK, value in parentheses, % inhibition [3] | SK-MEL30 pERK, value in parentheses, % inhibition [4] | Ymin of pERK inhibition curve (%) [5] | pERK curve Ymin (%) [6] | Mewo pERK, value in parentheses, % inhibition [8] | HepG2 pERK, value in parentheses, % inhibition [10] | Calu6 pERK, value in parentheses, % inhibition [11] | IC50 [1] [nM] | IC50 [2] [nM] | IC50 [3] [nM] | IC50 [4] [nM] | IC50 [5] [nM] | IC50 [6] [nM] | IC50 [7] [nM] | pERK IC50 curve bottom (Ymin), % [7] | IC50 [8] [nM] | IC50 [9] [nM] | Ymin of pERK IC50 curve (%) [9] | other results
Cc1ccc2c(Nc3cccc(Cl)c3F)nccc2c1NC(=O)c1csc2c(N)ncnc12 [Belvarafenib, reference compound] | (−63) % | (−122) % | (−9) % | (−45) % | (−79) % | (−12) % | (−116) % | (−36) % | (−39) % | – | – | – | – | – | – | – | – | – | – | – | IC50 ([1]; Homo sapiens, IPC-298): 30 to 300 nM; IC50 ([2]; Homo sapiens, NCI-H358): 30 to 300 nM; IC50 ([3]; Homo sapiens, NCI-H2122): 30 to 300 nM; IC50 ([4]; Homo sapiens, SK-MEL-30): < 30 nM; IC50 ([5]; Homo sapiens, NCI-H1755): 30 to 300 nM; IC50 ([6]; Homo sapiens, LoVo): < 30 nM; IC50 ([7]; Homo sapiens, SW-620): 30 to 300 nM; IC50 ([8]; Homo sapiens, MeWo): 30 to 300 nM; IC50 ([9]; Homo sapiens, NCI-H2087): < 30 nM; IC50 ([10]; Homo sapiens, HepG2): 30 to 300 nM; IC50 ([11]; Homo sapiens, Calu-6): 30 to 300 nM
O=S(=O)(Nc1ccc(F)c(Nc2ncnc3cnc(-n4cnc5c(N6CCC7(CCCO7)CC6)cccc54)nc23)c1F)c1cccc(Cl)c1Cl [Example 129] | (17) % | (−3) % | (−14) % | (16) % | (−2) % | (−2) % | (−5) % | (−2) % | (−1) % | 30 to 300 | 30 to 300 | > 300 | < 30 | < 30 | 30 to 300 | > 300 | (−7) % | 30 to 300 | < 30 | (3) % | IC50 [10]: 30 to 300 nM; IC50 [11]: 30 to 300 nM
COc1ccc(S(=O)(=O)Nc2ccc(F)c(Nc3ncnc4cnc(-n5cnc6c(N)cccc65)nc34)c2F)c(C)c1Cl [Example 112] | (1) % | (−8) % | (−15) % | (6) % | (12) % | (−1) % | (12) % | (−10) % | (1) % | 30 to 300 | 30 to 300 | 30 to 300 | < 30 | < 30 | 30 to 300 | 30 to 300 | (11) % | < 30 | < 30 | (−7) % | IC50 [10]: 30 to 300 nM; IC50 [11]: 30 to 300 nM
Cc1c(F)cccc1S(=O)(=O)Nc1ccc(F)c(Nc2ncnc3cnc(-n4cc(C(=O)N(C)Cc5ccncc5)c5ccccc54)nc23)c1F [Example 98] | (13) % | (20) % | (26) % | (10) % | (9) % | (27) % | (9) % | (27) % | (5) % | 30 to 300 | 30 to 300 | 30 to 300 | < 30 | < 30 | 30 to 300 | 30 to 300 | (36) % | 30 to 300 | < 30 | (6) % | IC50 [10]: < 30 nM; IC50 [11]: 30 to 300 nM
Cc1c(F)cccc1S(=O)(=O)Nc1ccc(F)c(Nc2ncnc3cnc(-n4cnc5c(-c6cccnc6)cccc54)nc23)c1F [Example 114] | (1) % | (−4) % | (0) % | (−9) % | (−5) % | (4) % | (−12) % | (14) % | (8) % | – | – | – | – | – | – | – | (−13) % | – | – | (2) % | IC50 ([1]; Homo sapiens, IPC-298): 30 to 300 nM; IC50 ([2]; Homo sapiens, NCI-H358): > 300 nM; IC50 ([3]; Homo sapiens, NCI-H2122): 30 to 300 nM; IC50 ([4]; Homo sapiens, SK-MEL-30): 30 to 300 nM; IC50 ([5]; Homo sapiens, NCI-H1755): 30 to 300 nM; IC50 ([6]; Homo sapiens, LoVo): < 30 nM; IC50 ([7]; Homo sapiens, SW-620): > 300 nM; IC50 ([8]; Homo sapiens, MeWo): 30 to 300 nM; IC50 ([9]; Homo sapiens, NCI-H2087): 30 to 300 nM; IC50 ([10]; Homo sapiens, HepG2): 30 to 300 nM; IC50 ([11]; Homo sapiens, Calu-6): 30 to 300 nM
